# Assays:
# [1] = target: T1, rhGAA (Homo sapiens, UniProt P10253); assay: Thermal stability scans of rhGAA (SYPRO Orange); assay type: binding; settings: pH 7.4
# T1 construct: purchased Genzyme Co, Cambridge, Mass., USA
# Procedure: Thermal stability scans of rhGAA were performed as described in [Flanagan et al. 2009]. Briefly, 2.5 μg of enzyme were incubated in the absence and in the presence of NAC and DNJ, 10 mM and 0.1 mM, respectively, SYPRO Orange dye, and sodium phosphate 25 mM buffer, 150 mM NaCl, pH 7.4 or sodium acetate 25 mM buffer, 150 mM NaCl, pH 5.2. Thermal stability scans were performed at 1° C./min in the range 25-95° C. in a Real Time LightCycler (Bio-Rad). SYPRO Orange fluorescence was normalized to maximum fluorescence value within each scan to obtain relative fluorescence. Melting temperatures were calculated according to (Niesen et al. 2007).
# [2] = target: T2, GAA activity in tissues (Homo sapiens, UniProt P10253); assay: Synergy between NAC and rhGAA in vivo in mouse model of PD; parameters: species or system mice; settings: oral NAC 5 days, rhGAA 100 mg/kg on day 3, liver, heart, diaphragm, gastrocnemium, not statistically significant
# T2 construct: purchased Genzyme Co, Cambridge, Mass., USA
# Procedure: Animal studies were performed according to the European Union Directive 86/609, regarding the protection of animals used for experimental purposes. The animals, mice model of PD [Raben et al, 1993], were allowed to drink 138 mM NAC in water ad libitum (4.2 g/kg/day) for 5 days. On day 3 they received a single rhGAA injection (100 mg/kg) in the tail vein. On day 5 the animals were sacrificed and tissues were analyzed for GAA activity.
# [3] = target: T1, rhGAA; assay: Effect of compounds on rhGAA stability at neutral pH (residual α-glucosidase activity); assay type: biochemical
# Procedure: (§1) The standard activity assay of rhGAA was performed in 200 μl by using 5 μg of enzyme at 37° C. in 100 mM sodium acetate pH 4.0 and 20 mM 4NP-Glc. The reaction was started by adding the enzyme; after suitable incubation time (1-2 min) the reaction was blocked by adding 800 μL of 1 M sodium carbonate pH 10.2. Absorbance was measured at 420 nm at room temperature, the extinction coefficient to calculate enzymatic units was 17.2 mM^−1 cm^−1. One enzymatic unit is defined as the amount of enzyme catalyzing the conversion of 1 μmol substrate into product in 1 min, under the indicated conditions.
# The effect of different pHs on the rhGAA stability was measured by preparing reaction mixtures containing 0.75 mg mL^−1 of enzyme in the presence of 50 mM citrate/phosphate (pH 3.0-7.0) at a certain pH. After incubations at 37° C., aliquots were withdrawn at the times indicated and the residual α-glucosidase activity was measured with the standard assay. To test the effect on the pH stability of rhGAA of chemical chaperons and of the other molecules, experiments were performed as described above by adding to the reaction mixtures the amounts of the different compounds indicated in the text.
# [4] = target: T1, rhGAA; assay: Effect on rhGAA enzyme activity (standard activity assay); assay type: biochemical; settings: three concentrations (FIG. 4)
# Procedure: as §1
# [5] = target: T3, rh-alpha-Gal A (Homo sapiens, UniProt P06280); assay: Effect of NAC on rh-alpha-Gal A at neutral pH; assay type: biochemical; settings: 10 mM, 50 mM sodium citrate/phosphate buffer pH 7.0, after 48 h
# T3 construct: purchased Genzyme Co, Cambridge, Mass., USA
# T3 sequence (P06280 32-429): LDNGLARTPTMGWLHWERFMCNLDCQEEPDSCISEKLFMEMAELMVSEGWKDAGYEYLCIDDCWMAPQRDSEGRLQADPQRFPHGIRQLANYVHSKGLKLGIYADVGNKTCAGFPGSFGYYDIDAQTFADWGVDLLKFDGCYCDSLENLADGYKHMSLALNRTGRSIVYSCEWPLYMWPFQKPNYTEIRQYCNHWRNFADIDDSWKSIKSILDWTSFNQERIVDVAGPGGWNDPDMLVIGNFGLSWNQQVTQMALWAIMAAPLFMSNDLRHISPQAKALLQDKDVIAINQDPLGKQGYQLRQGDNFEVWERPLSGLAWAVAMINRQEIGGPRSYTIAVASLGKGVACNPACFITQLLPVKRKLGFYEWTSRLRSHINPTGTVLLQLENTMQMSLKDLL
# Procedure: An important concern on the use of pharmacological chaperones is the specificity of their effects and the possibility of interactions with other enzymes. […] The latter family includes lysosomal alpha-galactosidase A (alpha-Gal A), that is defective in another LSD, Fabry disease [Germain, 2010]. Two preparations of recombinant human alpha-Gal A (rh-alpha-Gal A) have been approved for ERT in Fabry disease patients. To test if NAC is active on this enzyme, authors incubated rh-alpha-Gal A and 10 mM NAC in 50 mM sodium citrate/phosphate buffer, pH 7.0. NAC had no effect on rh-alpha-Gal A after 48 h (FIG. 10A).
smiles,measurement,setting,value
"CC(=O)N[C@@H](CS)C(=O)O [NAC, N-acetyl cysteine]",ΔTm at 10000 µM,"[1]; 10 mM, read-out: increase of melting temperature (Tm) of rhGAA",10.5 ± 0.5 °C
same,Tm of rhGAA in the presence of chaperone,"[1]; NAC 10 mM, DNJ 0.1 mM",60.7±0.5 °C
same,"correction of GAA enzyme activity in tissues, combination with rhGAA vs rhGAA alone",[2],superior to rhGAA alone
same,dose dependence of stabilizing effect on rhGAA,"[3]; 0, 0.1, 1, 10 mM, neutral pH",dose dependent
same,rhGAA activity detectable after incubation,"[3]; 10 mM, neutral pH 7.0, 37° C., after 48 h of incubation",about 90%
same,stabilization of rhGAA at neutral pH,"[3]; pH 7.0, 37° C., 0.1-10 mM, up to 48 hrs",rescued
same,effect on the activity of the enzyme (rhGAA),[4],not a competitive inhibitor
same,effect on rh-alpha-Gal A,[5],no effect
